{
  "source": "patent US20250255857A1",
  "about": "“METHODS OF TREATING ANDROGEN RECEPTOR-INDEPENDENT PROSTATE CANCER” (FOGHORN THERAPEUTICS INC., priority 2022, published 2025)",
  "key": {"[1]": {"test_system": "LNCaP prostate xenograft tumors", "assay": "LNCaP prostate xenograft tumor model, tumor growth inhibition", "format": "in vivo, mice", "description": "(§1) Procedure: The experimental details of the studies, including tumor model, mouse strain, cell number implanted, vehicle used, days of treatment, treatment details, and average tumor size at start of dosing are outlined in Table 1. All study mice were purchased from Beijing Anikeeper Biotech and Matrigel was utilized as a basement membrane for all xenograft models. All xenografts were engrafted subcutaneously in the right flank region. The vehicles and Compound 1 (3 mg/kg) were administered twice weekly (BIW) intraperitoneally and enzalutamide (30 mg/kg) was administered orally once daily (QD), when applicable. Tumor volumes and body weights were measured over the course of study, and doses were adjusted by body weight to achieve the proper dose in terms of mg/kg."}, "[2]": {"test_system": "C42B prostate xenograft tumors", "assay": "C42B prostate xenograft tumor model, tumor growth inhibition", "format": "in vivo, mice", "conditions": "C42B CDX model, AR+; 30 mg/kg QD oral", "description": "as §1"}, "[3]": {"test_system": "VCaP prostate xenograft tumors", "assay": "VCaP prostate xenograft tumor model (Example 1), tumor growth inhibition", "format": "in vivo, mice", "conditions": "VCaP CDX model, AR V7+; 30 mg/kg QD oral", "description": "as §1"}, "[4]": {"test_system": "VCAP human prostate cancer tumor cells", "assay": "VCaP CRPC CDX model in castrated mice (Example 6), tumor growth inhibition and tolerability", "format": "in vivo", "conditions": "castrated mice", "description": "Procedure: The experimental details of the studies, including tumor model, mouse strain, cell number implanted, vehicle used, days of treatment, treatment details, and average tumor size at start of dosing are outlined in Table 7. All study mice were obtained and the studies were conducted at Pharmaron. Each mouse was inoculated subcutaneously on the right flank with the single cell suspension of VCAP human prostate cancer tumor cells (1×10^7) in 0.1 mL with Matrigel (1:1) in DMEM medium with 10% FBS for tumor development. The mice were castrated by removing the testes via a scrotal approach when the tumor volume reached 270 mm^3. After castration, the tumor volume decreased. Treatment started when the mean tumor volume grew back 265 mm^3. Based on tumor volume, mice were randomly assigned to respective groups using a computer-generated randomization procedure and treated according to the study design in Table 8."}, "[5]": {"test_system": "22Rv1 prostate xenograft tumors", "assay": "22Rv1 prostate xenograft tumor model, tumor growth inhibition", "format": "in vivo, mice", "description": "as §1"}, "[6]": {"conditions": "VCAP CRPC model, Enzalutamide at 30 mg/kg PO QD, 25 days"}, "[7]": {"conditions": "VCAP CRPC model, Enzalutamide at 30 mg/kg PO QD, 25 days, Day 57"}},
  "data": [
    {"smiles": "CNC(=O)c1ccc(N2C(=S)N(c3ccc(C#N)c(C(F)(F)F)c3)C(=O)C2(C)C)cc1F", "note": "[enzalutamide, reference compound]", "values": [
      {"measurement": "TGI with Enzalutamide 30 mg/kg", "setting": "[1]; LNCaP CDX model, AR+, 30 mg/kg QD oral", "value": 92.1, "unit": "%"},
      {"measurement": "tumor growth inhibition (TGI), in words", "setting": "[1]; LNCaP xenograft, Compound 1 3 mg/kg BIW IP, enzalutamide 30 mg/kg QD oral", "value": "did lead to tumor growth inhibition"},
      {"measurement": "TGI with Enzalutamide 30 mg/kg", "setting": "[2]", "value": 68.5, "unit": "%"},
      {"measurement": "TGI with Enzalutamide 30 mg/kg", "setting": "[3]", "value": 46.8, "unit": "%"},
      {"measurement": "Tumor Growth % on Day 57", "setting": "[4]; [6]", "value": "238 ± 9", "unit": "%"},
      {"measurement": "Tumor Size on Day 57", "setting": "[4]; [6]", "value": "626 ± 28", "unit": "mm3"},
      {"measurement": "T/C", "setting": "[4]; [7]", "value": 76.7, "unit": "%"},
      {"measurement": "TGI", "setting": "[4]; [7]", "value": 23.3, "unit": "%"},
      {"measurement": "TGI", "setting": "[4]; VCaP CRPC model, Compound 1 10 mg/kg, enzalutamide 30 mg/kg, day 57 after tumor inoculation", "value": 23.3, "unit": "%"},
      {"measurement": "TGI with Enzalutamide 30 mg/kg", "setting": "[5]; 22RV1 CDX model, AR V7+, 30 mg/kg QD oral", "value": 40.3, "unit": "%"},
      {"measurement": "TGI", "setting": "[5]; 22Rv1 CDX model, Compound 1 3 mg/kg BIW IP, enzalutamide 30 mg/kg QD oral", "value": 40.3, "unit": "%"}
    ]}
  ]
}
